# Experimental data taken from patent US11352604B2, “Method of making cardiomyocytes from human pluripotent cells” (Wisconsin Alumni Research Foundation, priority 2016, dated 2022).
# How the values were obtained:
# hPSC-CMs = assay: Immunofluorescence cell size (area of cTnT staining); assay type: cell-based, human; conditions: day 30, pI:C-treated vs untreated progenitors
# Method: For internal antigens, cells were rinsed of media two times in PBS, fixed for 10 minutes in 4% paraformaldehyde at RT, rinsed three times again in PBS, then blocked for 1 hour at room temperature (RT) in Licor blocking buffer containing 0.2% Triton x-100 (Sigma). Blocking solution was aspirated and antibodies added overnight at 4° C. in fresh blocking/permeabilization solution. Antibodies used were mouse cardiac troponin T (Thermo Fisher Scientific, 1:200), rabbit WT1 (Abcam 1:200), mouse smooth muscle myosin heavy chain (Abcam, 1:200), goat Jag1 c-terminal domain (1:200 Abcam), MMP1 (Abcam, 1:200), mouse cardiac actin (Sigma, 1:200), rabbit SLC25A4 (Proteintech, 1:100), rabbit DBT (Proteintech, 1:100), rabbit ATP5F1 (Proteintech, 1:100), rabbit Irx4 (Abcam, 1:200), goat nkx2.5 (Santa Cruz, 1:50), mouse connexin 40 (Thermo Fisher Scientific, 1:200), and fibroblast-specific protein (Abcam, 1:100). After primary and secondary antibodies, cells were rinsed two times in PBS with 0.2% triton x-100. Donkey secondaries conjugated to Alexa Fluor dyes were used at 1:1000 and incubated at RT for 1 h. DAPI or Hoechst was used to visualize nuclei. Cells were imaged either on an EVOS system in wells (Thermo Fisher Scientific) or a Leica confocal microscope in cover glass or ibidi 8-well microslides. Image J was used to quantify cell area by outer boundaries of cTnT staining.
# NFκB signaling = assay: Western blot of NFκB and phosphorylated IκB in day 5 cardiac progenitors; assay type: cell-based, human; conditions: pI:C days 3-5
# Method: Frozen cell pellets from cardiac progenitors in the 19-9-11 iPS cell line were thawed and protein isolated in EBC lysis buffer (Boston BioProducts) supplemented with complete protease inhibitor tablets (Roche) rocking on ice for 1 hour to cause cell lysis. After the observation of lysis material and cell debris, protein/debris mixtures were centrifuged at >18,000×g for 15 minutes at 4° C. The protein-containing supernatant was quantified in a plate reader using the Biorad DC protein assay. 40 to 80 μg of protein was loaded in 6× βmercaptoethanol-containing Laemmli sample buffer (Biorad), boiled for 10 minutes at 95° C., then run on a 4-20% Criterion™ TGX™ gel (Biorad) for 30 minutes at 200 V. Proteins were then transferred at 10 V overnight at 4° C. to Immobilon-FL™ PVDF in a Criterion™ plate transfer cassette in Tris-Glycine transfer buffer (Biorad) with 20% methanol. Membranes were blocked for 1 hour at RT in Licor PBS blocking buffer, and then incubated with primary antibodies overnight 4° C. Antibodies were used at a dilution of 1:1000 (goat anti-Jag1, R&D systems) or 1:3000 (GAPDH, sigma) in Licor PBS blocking buffer. […] Licor secondary donkey anti-rabbit or anti-mouse antibodies were used at 1:15,000 for 1 hour at RT in Licor PBS blocking buffer, and after washing membranes were analyzed in a Licor Odyssey detection system. […]
substance,measurement,setting,value
polyinosinic-polycytidylic acid [pI:C],hPSC-CM cell size,hPSC-CMs,twice as large
same,phosphorylated IκB (NFκB pathway activation),NFκB signaling,showed expression of phosphorylated (inactivated) inhibitor IκB
